Here are results for one compound from article PMC5372988, “Bulgecin A: The Key to a Broad-Spectrum Inhibitor That Targets Lytic Transglycosylases” (Antibiotics, 2017).

Molecules are shown by their SMILES.

In the experiment the target is T1, LtgA (Neisseria meningitidis, UniProt Q9JXP1).
T1 construct: gene NMB1949; GST fusion from pGEX-4T1, GST cut by thrombin; E. coli BL21(DE3) Gold; 577 residues in model
T1 sequence (Q9JXP1 26-616): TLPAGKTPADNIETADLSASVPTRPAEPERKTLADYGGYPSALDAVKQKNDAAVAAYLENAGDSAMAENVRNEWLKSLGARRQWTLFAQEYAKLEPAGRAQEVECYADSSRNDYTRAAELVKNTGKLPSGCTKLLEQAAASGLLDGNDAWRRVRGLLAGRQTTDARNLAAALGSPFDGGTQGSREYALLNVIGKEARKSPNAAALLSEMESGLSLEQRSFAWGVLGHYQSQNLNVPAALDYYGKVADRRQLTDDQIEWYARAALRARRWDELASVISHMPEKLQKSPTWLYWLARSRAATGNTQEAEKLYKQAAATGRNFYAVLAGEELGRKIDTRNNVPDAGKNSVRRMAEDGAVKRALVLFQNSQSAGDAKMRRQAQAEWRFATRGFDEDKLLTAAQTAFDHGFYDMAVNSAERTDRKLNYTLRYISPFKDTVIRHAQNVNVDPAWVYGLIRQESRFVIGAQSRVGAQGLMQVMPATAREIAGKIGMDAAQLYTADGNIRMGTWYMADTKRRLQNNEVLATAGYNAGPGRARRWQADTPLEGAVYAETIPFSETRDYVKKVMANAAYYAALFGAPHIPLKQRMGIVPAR
The experiment can be described thus: RP-HPLC of muropeptides released from N. meningitidis peptidoglycan. The experiment is classed as biochemical.

Consider `CC(=O)N[C@H]1[C@H](O[C@H]2C[C@@H](C(=O)NCCS(=O)(=O)O)N[C@@H]2CO)O[C@H](CO)[C@@H](OS(=O)(=O)O)[C@@H]1O` [bulgecin A], for which the inhibition at 90 µM is 66 ± 9.4%.

For orientation: inhibition means how much of the control response was suppressed.
